These are literature values, as cited in patent US20240139316A1, “USE OF OREGOVOMAB AND BEVACIZUMAB, PACLITAXEL, CARBOPLATIN FOR TREATMENT OF BRCA-WILD TYPE PLATINUM SENSITIVE RECURRENT” (CANARIABIO INC., priority 2021, published 2024).

The conditions of series [1]: stage III or IV ovarian cancer after initial surgical operation; bevacizumab added to carboplatin and paclitaxel, followed by single-agent bevacizumab.
The conditions of series [2]: four infusions of Oregovomab with standard six cycle carboplatin and paclitaxel, relative to carboplatin-paclitaxel alone.
For series [3] the following is noted: oregovomab alone after the initial chemotherapy treatment, advanced ovarian cancer.

Regarding “bevacizumab: recombinant humanized IgG1 monoclonal antibody that selectively binds human VEGF-A”, in series [1], the Progression-free survival is given as 18 months.

On to carboplatin and paclitaxel, for which the Progression-free survival in series [1] is listed as 13 months.

Regarding Oregovomab, in series [2], the “overall survival (OS)” value was “significant improvement” and the “progression free survival (PFS)” value is given as “significant improvement”. The clinical outcome in series [3] is reported as “no improvements”.
